26 compounds from US8163771B2, “11 β-HSD1 modulators” (Exelixis, Inc., priority 2008, dated 2012) can be followed below.

A value given as a limit tells only on which side of the number the result lay.

T1 sequence (P28845 whole entry): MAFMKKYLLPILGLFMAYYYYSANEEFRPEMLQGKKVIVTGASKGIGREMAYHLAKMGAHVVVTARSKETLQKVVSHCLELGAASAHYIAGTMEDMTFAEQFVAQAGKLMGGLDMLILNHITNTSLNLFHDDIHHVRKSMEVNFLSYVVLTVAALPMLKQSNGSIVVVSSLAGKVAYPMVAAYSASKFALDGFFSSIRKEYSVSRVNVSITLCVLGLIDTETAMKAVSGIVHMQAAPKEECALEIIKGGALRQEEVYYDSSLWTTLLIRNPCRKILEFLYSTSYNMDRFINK

The assay concerns the target T1, recombinant human 11 β-HSD1 (Homo sapiens, UniProt P28845).
T1 construct: made in house; host or cells: E. coli
As to the kind of experiment: 11 β-HSD1 SPA Assay (Scintillation Proximity Assay). In kind it is biochemical. In short, it runs like this:
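E. coli-expressed human enzyme (30-100 nM) with tritiated cortisone 40 nM and NADPH 1 mM in HEPES buffer pH7.4, 2 hours at room temperature. Stopped with protein A SPA beads carrying anti-cortisol antibody and glycyrrhetinic acid; counted after overnight incubation. IC50 from percent inhibition between no-enzyme and no-compound signals.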
For the compound `CC(C)NC(=O)c1ccc(N2[C@@H]3CC[C@H]2C[C@@H](NC(=O)C(C)(C)Oc2ccc(F)cc2Cl)C3)nc1` [Example 70, 6-[3-endo-({2-[(2-chloro-4-fluorophenyl)oxy]-2-methylpropanoyl}amino)-8-azabicyclo[3.2.1]oct-8-yl]-N-(1-methylethyl)pyridine-3-carboxamide], the IC50 was under 0.2 µM.

On to `C[C@H](NC(=O)c1ccc(N2C3CCC2CC(NC(=O)C(C)(C)Oc2ccc(Cl)cc2OC(F)(F)F)C3)nc1)C(F)(F)F` (stereo partly drawn) [Example 410, 6-(3-endo-(2-(4-chloro-2-(trifluoromethoxy)phenoxy)-2-methylpropanamido)-8-azabicyclo[3.2.1]octan-8-yl)-N-((S)-1,1,1-trifluoropropan-2-yl)nicotinamide], for which the IC50 is under 0.2 µM.

Consider `CC(C)(Oc1ccc(Cl)cc1F)C(=O)N[C@H]1C[C@H]2CC[C@@H](C1)N2c1ccc(C(=O)NCC(F)F)cn1` [Example 447, 6-(3-endo-{[2-(4-chloro-2-fluorophenoxy)-2-methylpropanoyl]amino}-8-azabicyclo[3.2.1]oct-8-yl)-N-(2,2-difluoroethyl)pyridine-3-carboxamide], for which the IC50 was under 0.2 µM.

Take `CC(C)(Oc1ccc(Cl)cc1Cl)C(=O)N[C@H]1C[C@H]2CC[C@@H](C1)N2c1ccc(C(=O)NCC(F)(F)F)nc1` [Example 170, 5-[3-endo-({2-[(2,4-dichlorophenyl)oxy]-2-methylpropanoyl}amino)-8-azabicyclo[3.2.1]oct-8-yl]-N-(2,2,2-trifluoroethyl)pyridine-2-carboxamide]: the IC50 was under 0.2 µM.

Consider `NC(=O)c1ccc(N2[C@@H]3CC[C@H]2C[C@@H](NC(=O)C2(c4cccc(Cl)c4)CC2)C3)nc1` [Example 102, 6-[3-endo-({[1-(3-chlorophenyl)cyclopropyl]carbonyl}amino)-8-azabicyclo[3.2.1]oct-8-yl]pyridine-3-carboxamide], for which the IC50 is under 0.2 µM.

Turning to `CC(C)(Oc1ccc(F)cc1C(F)(F)F)C(=O)N[C@H]1C[C@H]2CC[C@@H](C1)N2c1ccc(C(N)=O)cn1` [Example 168, 6-{3-endo-[(2-{[4-fluoro-2-(trifluoromethyl)phenyl]oxy}-2-methylpropanoyl)amino]-8-azabicyclo[3.2.1]oct-8-yl}pyridine-3-carboxamide], the IC50 is under 0.2 µM.

As for `CC(C)(Oc1nccc2ccccc12)C(=O)N[C@H]1C[C@H]2CC[C@@H](C1)N2c1ccc(C(=O)NCC(F)(F)F)cn1` [Example 354, 6-(3-endo-{[2-(isoquinolin-1-yloxy)-2-methylpropanoyl]amino}-8-azabicyclo[3.2.1]oct-8-yl)-N-(2,2,2-trifluoroethyl)pyridine-3-carboxamide], the IC50 is under 0.2 µM.

With `CC(C)(Oc1cc(Cl)c(F)cc1Cl)C(=O)N[C@H]1C[C@H]2CC[C@@H](C1)N2c1ccc(S(C)(=O)=O)cc1` [Example 174, 2-[(2,5-dichloro-4-fluorophenyl)oxy]-2-methyl-N-{8-[4-(methylsulfonyl)phenyl]-8-azabicyclo[3.2.1]oct-3-endo-yl}propanamide], the IC50 is under 2 µM.

Turning to `CC(C)(Oc1ccc(Cl)cc1OC(F)(F)F)C(=O)N[C@H]1C[C@H]2CC[C@@H](C1)N2c1ccc(C(=O)NCC(F)(F)F)cn1` [Example 363, 6-[3-endo-({2-[4-chloro-2-(trifluoromethoxy)phenoxy]-2-methylpropanoyl}amino)-8-azabicyclo[3.2.1]oct-8-yl]-N-(2,2,2-trifluoroethyl)pyridine-3-carboxamide], the IC50 was under 0.2 µM.

In the case of `C[C@H](NC(=O)c1ccc(N2C3CCC2CC(NC(=O)C(C)(C)Oc2ccc(F)cc2F)C3)nc1)C(F)(F)F` (stereo partly drawn) [Example 431, 6-(3-endo-{[2-(2,4-difluorophenoxy)-2-methylpropanoyl]amino}-8-azabicyclo[3.2.1]oct-8-yl)-N-[(2S)-1,1,1-trifluoropropan-2-yl]pyridine-3-carboxamide], the IC50 was under 0.2 µM.

For `CC(C)(Oc1ccc(F)cc1C(F)(F)F)C(=O)N[C@H]1C[C@H]2CC[C@@H](C1)N2c1ccc(S(C)(=O)=O)nc1` [Example 288, 2-{[4-fluoro-2-(trifluoromethyl)phenyl]oxy}-2-methyl-N-{8-[6-(methylsulfonyl)pyridin-3-yl]-8-azabicyclo[3.2.1]oct-3-endo-yl}propanamide], the IC50 is under 2 µM.

For `CC(C)(Oc1ccc(Cl)cc1Cl)C(=O)N[C@H]1C[C@H]2CC[C@@H](C1)N2c1ccc(C(=O)NC2(CO)CC2)cn1` [Example 384, 6-(3-endo-{[2-(2,4-dichlorophenoxy)-2-methylpropanoyl]amino}-8-azabicyclo[3.2.1]oct-8-yl)-N-[1-(hydroxymethyl)cyclopropyl] pyridine-3-carboxamide], the IC50 is under 0.2 µM.

Regarding `CC(C)(Oc1ccc2ccccc2n1)C(=O)N[C@H]1C[C@H]2CC[C@@H](C1)N2c1ccc(C(N)=O)cn1` [Example 310, 6-(3-endo-{[2-methyl-2-(quinolin-2-yloxy)propanoyl]amino}-8-azabicyclo[3.2.1]oct-8-yl)pyridine-3-carboxamide], the IC50 was under 0.2 µM.

Regarding `O=C(Nc1ccc(N2[C@@H]3CC[C@H]2C[C@@H](NC(=O)C2(c4ccc(Cl)cc4)CC2)C3)nc1)C1CC1` [Example 59, 1-(4-chlorophenyl)-N-(8-{5-[(cyclopropylcarbonyl)amino]pyridin-2-yl}-8-azabicyclo[3.2.1]oct-3-endo-yl)cyclopropanecarboxamide], the IC50 was under 0.2 µM.

Take `CC(C)(Oc1ccc(F)cc1)C(=O)N[C@H]1C[C@H]2CC[C@@H](C1)N2c1ccc(S(C)(=O)=O)cc1` [Example 233, 2-[(4-fluorophenyl)oxy]-2-methyl-N-{8-[4-(methylsulfonyl)phenyl]-8-azabicyclo[3.2.1]oct-3-endo-yl}propanamide]: the half-maximal inhibitory concentration (IC50) was under 2 µM.

In the case of `CC(C)(Oc1ccc(Cl)cc1C(F)(F)F)C(=O)NC1CC2CCC(C1)N2c1ccc(C(=O)NCC(O)C(F)(F)F)cn1` (stereo not drawn) [Example 458, 6-[3-endo-({2-[4-chloro-2-(trifluoromethyl)phenoxy]-2-methylpropanoyl}amino)-8-azabicyclo[3.2.1]oct-8-yl]-N-(3,3,3-trifluoro-2-hydroxypropyl)pyridine-3-carboxamide], the IC50 is under 0.2 µM.

Consider `CC(C)(Oc1ccccc1C(F)(F)F)C(=O)N[C@H]1C[C@H]2CC[C@@H](C1)N2c1ccc(C(N)=O)cn1` [Example 164, 6-{3-endo-[(2-methyl-2-{[2-(trifluoromethyl)phenyl]oxy}propanoyl)amino]-8-azabicyclo[3.2.1]oct-8-yl}pyridine-3-carboxamide], for which the IC50 is under 0.2 µM.

Turning to `CC(C)(Oc1ccc(Cl)c(Cl)c1)C(=O)N[C@H]1C[C@H]2CC[C@@H](C1)N2c1ccc(C(=O)NC2CC2)cn1` [Example 42, N-cyclopropyl-6-[3-endo-({2-[(3,4-dichlorophenyl)oxy]-2-methylpropanoyl}amino)-8-azabicyclo[3.2.1]oct-8-yl]pyridine-3-carboxamide], the IC50 was under 0.2 µM.

As for `CC(C)(Sc1ccc(Cl)cc1Cl)C(=O)N[C@H]1C[C@H]2CC[C@@H](C1)N2c1ccc(S(C)(=O)=O)cn1` [Example 328, 2-[(2,4-dichlorophenyl)thio]-2-methyl-N-{8-[5-(methylsulfonyl)pyridin-2-yl]-8-azabicyclo[3.2.1]oct-3-endo-yl}propanamide], the IC50 is under 0.2 µM.

On to `C[C@@H](NC(=O)c1ccc(N2C3CCC2CC(NC(=O)C(C)(C)Oc2cc(F)c(F)cc2Cl)C3)nc1)C(F)(F)F` (stereo partly drawn) [Example 451, 6-(3-endo-{[2-(2-chloro-4,5-difluorophenoxy)-2-methylpropanoyl]amino}-8-azabicyclo[3.2.1]oct-8-yl)-N-[(2R)-1,1,1-trifluoropropan-2-yl]pyridine-3-carboxamide], for which the IC50 is under 0.2 µM.

As to `CC(C)(Oc1ccc(Cl)cc1C(F)(F)F)C(=O)NC1CC2CCC(C1)N2c1ccc(C(=O)NC2CC2(F)F)cn1` (stereo not drawn) [Example 345, 6-[3-endo-({2-[4-chloro-2-(trifluoromethyl)phenoxy]-2-methylpropanoyl}amino)-8-azabicyclo[3.2.1]oct-8-yl]-N-(2,2-difluorocyclopropyl)pyridine-3-carboxamide], the IC50 is under 0.2 µM.

For `CC(C)(Oc1ccc(F)c(Cl)c1)C(=O)N[C@H]1C[C@H]2CC[C@@H](C1)N2c1ccc(S(N)(=O)=O)cn1` [Example 227, N-{8-[5-(aminosulfonyl)pyridin-2-yl]-8-azabicyclo[3.2.1]oct-3-endo-yl}-2-[(3-chloro-4-fluorophenyl)oxy]-2-methylpropanamide], the IC50 was under 0.2 µM.

For the compound `C[C@H](NC(=O)c1ccc(N2C3CCC2CC(NC(=O)C(C)(C)Oc2ccc(Cl)cc2C(F)F)C3)nc1)C(F)(F)F` (stereo partly drawn) [Example 424, 6-[3-endo-({2-[4-chloro-2-(difluoromethyl)phenoxy]-2-methylpropanoyl}amino)-8-azabicyclo[3.2.1]oct-8-yl]-N-[(2S)-1,1,1-trifluoropropan-2-yl]pyridine-3-carboxamide], the IC50 was under 0.2 µM.

As for `CC(C)(Oc1cc(F)c(Cl)cc1Cl)C(=O)N[C@H]1C[C@H]2CC[C@@H](C1)N2c1ccc(C(N)=O)cn1` [Example 76, 6-[3-endo-({2-[(2,4-dichloro-5-fluorophenyl)oxy]-2-methylpropanoyl}amino)-8-azabicyclo[3.2.1]oct-8-yl]pyridine-3-carboxamide], the IC50 is under 0.2 µM.

For the compound `COc1ccc(OC(C)(C)C(=O)N[C@H]2C[C@H]3CC[C@@H](C2)N3c2ccc(S(N)(=O)=O)cn2)cc1` [Example 181, N-{8-[5-(aminosulfonyl)pyridin-2-yl]-8-azabicyclo[3.2.1]oct-3-endo-yl}-2-methyl-2-{[4-(methyloxy)phenyl]oxy}propanamide], the IC50 is under 0.2 µM.

For the compound `CC(C)(Oc1ccc(Cl)c(F)c1)C(=O)N[C@H]1C[C@H]2CC[C@@H](C1)N2c1ccc(C(=O)NCC(F)(F)F)cn1` [Example 77, 6-[3-endo-({2-[(4-chloro-3-fluorophenyl)oxy]-2-methylpropanoyl}amino)-8-azabicyclo[3.2.1]oct-8-yl]-N-(2,2,2-trifluoroethyl)pyridine-3-carboxamide], the IC50 is under 0.2 µM.
